Consider 22 molecules from patent publication US6825354B2 (Wyeth Holdings Corporation, priority 1999, dated 2004).

Counter-ions that a name gives are not always drawn. Like-named read-outs stand apart in the source and are kept apart here.

For series [1], the target named is TNF-α converting enzyme (TACE) (Homo sapiens, UniProt P78536). Put plainly: TACE inhibition, fluorescent peptidyl substrate. The format is biochemical. As to conditions: read-out: TACE IC50. As for the experimental part: […] The reaction is initiated by addition of a fluorescent peptidyl substrate (final concentration 100 μM) to each well and then shaking on a shaker for 5 sec.
Sequence of TNF-α converting enzyme (TACE) (P78536 215-824): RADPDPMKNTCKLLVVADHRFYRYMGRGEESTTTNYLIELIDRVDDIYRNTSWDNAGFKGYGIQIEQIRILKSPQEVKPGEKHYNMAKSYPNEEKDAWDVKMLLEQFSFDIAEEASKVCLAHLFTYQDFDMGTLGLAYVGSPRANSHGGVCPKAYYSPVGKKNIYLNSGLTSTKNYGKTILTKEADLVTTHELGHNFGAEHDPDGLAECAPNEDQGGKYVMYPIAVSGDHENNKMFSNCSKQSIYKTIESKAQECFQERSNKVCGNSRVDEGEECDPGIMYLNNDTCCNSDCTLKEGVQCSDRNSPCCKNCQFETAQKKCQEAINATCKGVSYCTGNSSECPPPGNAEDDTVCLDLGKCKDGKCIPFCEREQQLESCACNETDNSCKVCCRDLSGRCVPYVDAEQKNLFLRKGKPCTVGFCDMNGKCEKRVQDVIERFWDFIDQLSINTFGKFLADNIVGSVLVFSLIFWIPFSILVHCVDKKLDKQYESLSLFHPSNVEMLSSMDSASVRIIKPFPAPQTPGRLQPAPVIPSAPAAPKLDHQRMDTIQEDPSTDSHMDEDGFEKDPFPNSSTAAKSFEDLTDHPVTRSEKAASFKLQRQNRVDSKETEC
The reaction is read (excitation 340 nm, emission 420 nm) for 10 min. and the increase in fluorescence over time is plotted as a linear line. The slope of the line is calculated and represents the reaction rate.
The mean (x±sem) of the control rate is calculated and compared for statistical significance (p<0.05) with drug-treated rates using Dunnett's multiple comparison test.

The target in series [2] is T1, MMP-1 (Homo sapiens, UniProt P03956).
T1 sequence (P03956 100-469): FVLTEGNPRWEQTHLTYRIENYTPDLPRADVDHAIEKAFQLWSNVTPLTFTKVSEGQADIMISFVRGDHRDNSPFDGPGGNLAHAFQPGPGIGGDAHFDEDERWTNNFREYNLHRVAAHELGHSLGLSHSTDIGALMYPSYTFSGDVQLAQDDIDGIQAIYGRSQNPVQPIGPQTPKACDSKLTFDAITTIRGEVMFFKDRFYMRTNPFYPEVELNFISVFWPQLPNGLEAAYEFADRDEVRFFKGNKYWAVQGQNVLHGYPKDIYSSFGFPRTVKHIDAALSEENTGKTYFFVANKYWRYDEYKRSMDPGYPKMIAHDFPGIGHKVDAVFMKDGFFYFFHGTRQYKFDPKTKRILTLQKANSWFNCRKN
Description: MMP-1 inhibition, thiopeptide or fluorescent peptide substrate. The format is biochemical. As to conditions: for IC50: Table 1, first part, read-out: MMP1 IC50. As for the experimental part:
(§1) The enzyme activity is measured by the rate of the color increase. The thiopeptide substrate is made up fresh as a 20 mM stock in 100% DMSO and the DTNB is dissolved in 100% DMSO as a 100 mM stock and stored in the dark at room temperature. Both the substrate and DTNB are diluted together to 1 mM with substrate buffer (50 mM HEPES pH 7.5, 5 mM CaCl2) before use. The stock of enzyme is diluted with buffer (50 mM HEPES, pH 7.5, 5 mM CaC12, 0.02% Brij) to the desired final concentration.
(§2) Alternatively, a fluorescent peptide substrate is used. In this test procedure, the peptide substrate contains a fluorescent group and a quenching group. Upon cleavage of the substrate by an MMP, the fluorescence that is generated is quantitated on the fluorescence plate reader. The assay is run in HCBC assay buffer (50 mM HEPES, pH 7.0, 5 mM Ca^+2, 0.02% Brij, 0.5% Cysteine), with human recombinant MMP-1, MMP-9, or MMP-13. The substrate is dissolved in methanol and stored frozen in 1 mM aliquots. For the assay, substrate and enzymes are diluted in HCBC buffer to the desired concentrations. Compounds are added to the 96 well plate containing enzyme and the reaction is started by the addition of substrate.
(§3) For either the thiopeptide or fluorescent peptide test procedures, the slope of the line is calculated and represents the reaction rate. […] The mean (x±sem) of the control rate is calculated and compared for statistical significance (p<0.05) with drug-treated rates using Dunnett's multiple comparison test.

The test system of series [3] is THP-1 cells (soluble TNF-α). Description: Human monocytic THP-1 cell differentiation assay for soluble proteins (THP soluble protein assay). Type of series: cell-based. The conditions noted are these: negative = less TNF-α; for inhibition at 3 µM: Homo sapiens, THP-1, percent change from vehicle positive control, read-out: TNFalpha at 3 uM, THP (percent change). From the text:
Mitogenic stimulation of THP-1 cells cause differentiation into macrophage like cells with concomitant secretion of tumor necrosis factor (TNF-a) and TNF receptor (TNF-R p75/80 and TNF-R p55/60) and Interleukin-8 (IL-8), among other proteins. […] The release of membrane bound TNF-a and possibly TNF-R p75/80 and TNF-R p55/60, but not IL-8, is mediated by an enzyme called TNF-α converting enzyme or TACE.
THP-1 cells (from ATCC) are a human monocytic cell line which were obtained from the peripheral blood of a person with acute monocytic leukemia They can be grown in culture and differentiated into macrophage like cells by stimulation with mitogens.
Each vial of cells are cultured for about two weeks prior to being used for an assay and then are used for only 4 to 6 weeks to screen compounds.
Cell exposure to DMSO was limited to 0.1% final concentration. […] Compounds can be evaluated for their effect on basal (non-stimulated) shedding of the receptors by replacing the LPS with […] of THP-1 media Plates are placed into an incubator set at 5% CO2 and at 37° C. After 4 hours of incubation, […] of tissue culture supernatant (TCS) is removed for use in an TNF-α ELISA. Following 24 hours of incubation, […] of TCS is removed and used for analysis in TNF-R p75/80, TNF-R p55/60 and IL-8 ELISAs.
In addition, at the 24 hours timepoint, and the cells for each treatment group are collected by resuspension in 500 μl/well of THP-1 media and transferred into a FACS tube. […] The samples are run on a Becton Dickinson FaxCaliber FLOW cytometry machine and the amount of dye taken up by each cell is measured in the high red wavelength (FL3). Only cells with compromised membranes (dead or dying) can take up PI. The percent of live cells is calculated by the number of cells not stained with PI, divided by the total number of cells in the sample. The viability values calculated for the drug treated groups were compared to the viability value calculated for the vehicle treated mitogen stimulated group (“vehicle positive control”) to determine the “percent change from control”. This “percent change from control” value is an indicator of drug toxicity.
The quantity of soluble TNF-α, TNF-R p75/80 and TNF-R p55/60 and IL-8 in the TCS of the ThP-1 cell cultures are obtained with commercially available ELISAs from R&D Systems, by extrapolation from a standard curve generated with kit standards. The number of cells that either take up or exclude PI are measured by the FLOW cytometry machine and visualized by histograms using commercially available Cytologic software for each treatment group including all controls.
Biological variability in the magnitude of the response of THP-1 cell cultures requires that experiments be compared on the basis of percent change from “vehicle positive control” for each drug concentration. Percent change in each soluble protein evaluated from the “vehicle positive control” was calculated for each compound concentration with the following formula: [formula]
For the soluble protein (TNF-a, p75/80, p55/60, IL-8) studies under stimulated conditions, the mean pg/ml of duplicate wells were determined and the results expressed as percent change from “vehicle positive control”. For the soluble protein (p75/80 and p55/60 receptors) studies under non-stimulated conditions, the mean pglml of duplicate wells were determined and the results expressed as percent change from “vehicle positive control” utilizing the following formula: [formula]
IC50 values for each compound are calculated by non-linear regression analysis using customized software utilizing the JUMP statistical package.
For the cell viability studies, the viabilities (PI exclusion) of pooled duplicate wells were determined and the results expressed as % change from “vehicle positive control”.

Series [4] has as its target MMP-13 (Homo sapiens, UniProt P45452). Description: MMP-13 inhibition, thiopeptide or fluorescent peptide substrate. The conditions noted are these: Table 1, second part; 10 μM. Type of series: biochemical. The procedure:
as §1, §2, §3

By IC50 is commonly meant the concentration that gives 50% inhibition. For the molecule “1-Methyl-1H-pyrrole-2-carboxylic acid {[5-(4-but-2-ynyloxy-benzenesulfinyl)-5-hydroxy-carbamoylpentyl-carbamoyl]-methyl}-amide [Example 61]”, the half-maximal inhibitory concentration (IC50) in series [1] (Table 1, first part) worked out at 22.5 nM; in series [2] it was 5600 nM.
Take “2-(4-But-2-ynyloxy-benzenesulfinyl)-6-(4-thiophen-2-yl-butyrylamino)-hexanoic acid hydroxyamide [Example 58]”: the IC50 in series [1] (Table 1, first part) came out at 20.1 nM; in series [2] it was 4600 nM.
On to “2-(4-But-2-ynyloxy-benzenesulfinyl)-6-[2-(3,4-dichloro-phenyl)-acetylamino]-hexanoic acid hydroxyamide [Example 57]”, for which the concentration for half-maximal inhibition (IC50) in series [1] (Table 1, first part) stood at 24.4 nM; in series [2], 4600 nM.
Consider “2-{[4-(2-butynyloxy)phenyl]sulfonyl}-2-(4-chlorophenyl)-N-hydroxyacetamide [Example 102]”, for which the IC50 in series [1] (Table 1, second part, footnote a: IC50 (nM)) worked out at 82 nM. In addition, the “TNFalpha at 3 uM, THP (percent change)” value in series [3] (percent change from vehicle positive control) is −10%. Besides, in series [2] (Table 1, second part, 10 μM), the “MMP1 % @ 10 μM” value is 26%. Besides, in series [4], the “MMP13 % @ 10 μM” value is given as 71%.
Regarding “9H-Xanthene-9-carboxylic acid [5-(4-but-2-ynyloxy-benzenesulfinyl)-5-hydroxycarbamoyl-pentyl]-amide [Example 59]”, the IC50 in series [1] (Table 1, first part) is 22.6 nM; in series [2], 3400 nM.
As a reminder, the melting point is the temperature, or range, at which the solid turns liquid. `CC#CCOc1ccc(S(=O)(=O)C(C)(Cc2ccc(OCCN3CCCCC3)cc2)C(=O)NO)cc1` (stereo not shown) (as salt: hydrochloride) [Example 1, 2-(4-But-2-ynyloxy-benzenesulfonyl)-N-hydroxy-2-methyl-3-[4-(2-piperidin-1-yl-ethoxy)-phenyl]-propionamide] displayed a melting point of 114 to 116 °C.
On the same count and under the same terms, in the case of `CC#CCOc1ccc(S(=O)(=O)C(C)(Cc2cccnc2)C(=O)NO)cc1` (stereo not shown) (as salt: hydrochloride) [Example 3, 2-(4Buty-2-ynyloxy-phenylsulfonyl)-N-hydroxy-2-methyl-3-pyridin-3-ylpropionamide] it was 154 to 156 °C.
With `CC#CCOc1ccc([S+]([O-])[C@@H](C(=O)NO)c2ccc(Br)cc2)cc1` (single isomer, unassigned) [Example 87], in series [3], the inhibition at 3 µM was -5%.
Molecule `CC#CCOc1ccc(S(=O)(=O)C(C)(Cc2ccc(-c3ccccc3)cc2)C(=O)NO)cc1` (stereo not shown) [Example 2, 3-Biphenyl-4-yl-2-(4-Buty-2-ynyloxy-phenylsulfonyl)-N-hydroxy-2-methyl-propionamide] gave a melting point of 92 to 94 °C.
In turn, `CC#CCOc1ccc(SC(C)C(=O)NO)cc1` (stereo not shown) [Example 4, 2-(4-Buty-2-ynyloxy-phenylsulfanyl)-N-hydroxy-propionamide] came in with a melting point of 102 to 104 °C.
On the same count and under the same terms, then `CC#CCOc1ccc(SC(CCCCCC)C(=O)NO)cc1` (stereo not shown) [Example 6, 2-(4-But-2-ynyloxy-phenylsulfanyl)-octanoic Acid Hydroxamide], with 125 °C; and `CC#CCOc1ccc([S@@+]([O-])[C@@H](CCCCCC)C(=O)NO)cc1` [Example 8, (S)-2-[(S)-[4-(2-Butynyloxy)phenylsulfinyl)]-N-hydroxyoctanamide], with 112.2 °C.
Still for that read-out and setting: then `CC#CCOc1ccc(OCCC(=O)NO)cc1` [Example 9, 3-(4-But-2-ynyloxy-phenoxy)-N-hydroxy-propionamide], with 116 to 118 °C.
Still for that read-out and setting: then `CC#CCOc1ccc(OCCCC(=O)NO)cc1` [Example 10, 4-(4-But-2-ynyloxy-phenoxy)-N-hydroxy-butyramide], with 123 to 125 °C; and `CC#CCOc1ccc(OCC(=O)NO)cc1` [Example 11, 2-(4-But-2-ynyloxy-phenoxy)-N-hydroxy-acetamide], with 130 to 132 °C.
`CC#CCOc1ccc(SC(C(=O)NO)c2ccc(OCC)cc2)cc1` (stereo not shown) [Example 100, 2-{[4-(2-butynyloxy)phenyl]sulfanyl}-N-hydroxy-2-(4-ethoxyphenyl)acetamide]: in series [3], the inhibition at 3 µM came to 0%.
As for `CC#CCOc1ccc([S+]([O-])C(C(=O)NO)c2ccc(OCC)cc2)cc1` (stereo not shown) [Example 101, 2-{[4-(2-Butynyloxy)phenyl]sulfinyl}-N-hydroxy-2-(4-ethoxyphenyl)acetamide], the inhibition at 3 µM in series [3] is -1%.
With `CC#CCOc1ccc(SC(C(=O)NO)c2cccc(Br)c2)cc1` (stereo not shown) [Example 103, 2-{[4-(2-Butynyloxy)phenyl]sulfanyl}-N-hydroxy-2-(3-bromophenyl)acetamide], the inhibition at 3 µM in series [3] is -15%.
Turning to `CC#CCOc1ccc(S(=O)(=O)C(C(=O)NO)C2CCN(C(C)=O)CC2)cc1` (stereo not shown) [Example 121, 2-(1-acetyl-4-piperidinyl)-2-{[4-(2-butynyloxy)phenyl]sulfonyl}-N-hydroxyacetamide], the melting point was 103 °C.
Still for that read-out and setting: then `CC#CCOc1ccc(S(=O)(=O)C(C(=O)NO)C2CCSCC2)cc1` (stereo not shown) [Example 123, 2-{[4-(2-Butynyloxy)phenyl]sulfonyl}-N-hydroxy-2-tetrahydro-2H-thiopyran-4yl-acetamide], with 175 to 177 °C.
With “N-[5-(4-But-2-ynyloxy-benzenesulfinyl)-5-hydroxycarbamoyl-pentyl]-2-phenethyl-benzamide [Example 56]”, the half-inhibitory concentration (IC50) was 21.9 nM in series [1] (Table 1, first part) and 3900 nM in series [2].
The like results for “Quinoline-3-carboxylic Acid [5-(4-but-2-ynyloxy-benzenesulfinyl)-5-hydroxycarbamoyl-pentyl]-amide [Example 53]” were, in that order, 15.2 nM and 4000 nM.
